By melting point is commonly meant the temperature, or range, at which the solid turns liquid.

Consider six molecules from patent US20100292334A1, “N-ACYLHYDRAZONE DERIVATIVES USEFUL AS MODULATORS OF NICOTINIC ACETYLCHOLINE RECEPTORS” (NeuroSearch A/S, priority 2007, published 2010).

Data set [1] deals with T1, wild-type nAChR α7 receptors (Homo sapiens, UniProt P36544).
T1 construct: expressed in transfected cells; host or cells: Xenopus laevis oocytes
The data set is described as follows: Positive modulation of nAChR α7 receptors expressed in Xenopus laevis oocytes, two-electrode voltage clamp. It is filed as cell-based. The method, then: In this example the positive modulation of wild-type nAChR α7 receptors by Compound 3 (i.e. 4-Hydroxy-3-methoxy-benzoic acid [3-methyl-4-oxo-4H-naphthalen-(1E)-ylidene]-hydrazide; FIGS. 1A and 1B) was determined using nAChR α7 receptors heterologously expressed in Xenopus laevis oocytes.
The electrical current through the nAChR α7 channel was measured using conventional two-electrode voltage clamp and nAChR α7 currents were activated by applying pulses of agonist-containing solution onto the nAChR α7 expressing oocyte.
In brief, the oocytes were placed in a recording chambers and continuously super-fused with an Oocyte Ringer (OR) solution containing 90 mM NaCl, 2.5 mM KCl, 2.5 mM CaCl2, 1 mM MgCl2 and 5 mM HEPES (pH adjusted to 7.4). The oocytes were clamped at −60 mV and currents were induced by applying 20 s pulses of 100 μM acetylcholine dissolved in OR. The intervals between the acetylcholine applications were 5 minutes, during which the oocytes were washed with OR. The first three applications were control applications to insure a constant response level of 100 μM acetylcholine.
The positive modulation in the presence of Compound 3 was calculated as (test-control)/control*100% and the concentration response curve for this positive modulation was fitted to the sigmoidal logistic equation: I=Imax/(1+(EC50/[compound])n), where Imax represents the maximal modulation of the control response, EC50 is the concentration causing a half maximal response, and n is the slope coefficient.

Each structure is given as a SMILES string.

T1 sequence (P36544 23-502): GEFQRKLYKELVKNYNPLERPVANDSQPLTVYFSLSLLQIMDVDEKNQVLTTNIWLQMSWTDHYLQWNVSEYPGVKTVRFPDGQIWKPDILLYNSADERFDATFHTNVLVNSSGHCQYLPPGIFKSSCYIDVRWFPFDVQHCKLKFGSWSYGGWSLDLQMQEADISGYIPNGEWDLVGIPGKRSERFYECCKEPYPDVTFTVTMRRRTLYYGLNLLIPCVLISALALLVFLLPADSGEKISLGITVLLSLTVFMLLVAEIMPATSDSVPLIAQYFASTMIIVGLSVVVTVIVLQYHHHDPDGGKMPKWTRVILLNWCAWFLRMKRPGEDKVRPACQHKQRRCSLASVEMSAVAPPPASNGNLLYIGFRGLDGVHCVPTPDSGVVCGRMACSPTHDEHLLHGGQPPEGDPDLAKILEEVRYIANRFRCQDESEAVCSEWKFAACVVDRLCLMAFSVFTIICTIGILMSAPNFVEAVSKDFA

In the case of `CC1=C/C(=N\NC(=O)c2ccc(O)cc2)c2ccccc2C1=O` [Compound 1, 4-Hydroxy-benzoic acid [3-methyl-4-oxo-4H-naphthalen-(1E)-ylidene]-hydrazide], the melting point was in the range of 274.3 to 275.7 °C.

The molecule `COc1ccc(C(=O)N/N=C2\C=C(C)C(=O)c3ccccc32)cc1` [Compound 2, 4-Methoxy-benzoic acid [3-methyl-4-oxo-4H-naphthalen-(1E)-ylidene]-hydrazide] displayed a melting point of 252.9 to 253.4 °C.

Take `COc1cc(C(=O)N/N=C2\C=C(C)C(=O)c3ccccc32)ccc1O` [Compound 3, 4-Hydroxy-3-methoxy-benzoic acid [3-methyl-4-oxo-4H-naphthalen-(1E)-ylidene]-hydrazide]: the melting point lay in the range of 254.8 to 255.6 °C. Moreover, in data set [1] (0.01-31.6 μM applied 30 s before and during 100 μM acetylcholine), the “effect on the acetylcholine-induced current amplitude” value is given as “robust increase”. Moreover, in data set [1] (Xenopus laevis oocytes clamped at −60 mV, 100 μM acetylcholine, (test-control)/control*100%, fitted maximum), the “Imax (maximal modulation of the control response)” value is listed as 98%. Further, in data set [1] (Xenopus laevis oocytes clamped at −60 mV, currents induced by 100 μM acetylcholine, compound 0.01-31.6 μM applied 30 s before and during acetylcholine, read-out: EC50 (concentration causing a half maximal response) of positive modulation), the EC50 turned out to be 490 nM.

`CC1=C/C(=N\NC(=O)c2ccc3[nH]ccc3c2)c2ccccc2C1=O` [Compound 4, 1H-Indole-5-carboxylic acid [3-methyl-4-oxo-4H-naphthalen-(1E)-ylidene]-hydrazide] had a melting point of 251.9 to 252.9 °C.

`CC(=O)Nc1ccc(C(=O)N/N=C2\C=C(C)C(=O)c3ccccc32)cc1` [Compound 5, N-{-4-[3-Methyl-4-oxo-4H-naphthalen-(1E)-ylidene-hydrazinocarbonyl]-phenyl}-acetamide] had a melting point of 280.5 to 280.8 °C.

Take `CC1=C/C(=N/NC(=O)c2ccc(C#N)cc2)c2ccccc2C1=O` [Compound 6, 4-Cyano-benzoic acid [3-methyl-4-oxo-4H-naphthalen-(1Z)-ylidene]-hydrazide]: the melting point was in the range of 290.3 to 292.7 °C.
